Source: patent publication US7601702B2, “Dutpase Inhibitors” (Medivir AB, priority 2004, dated 2009)
≈ marks a conversion by molar mass, not a printed value. Where a name gives a salt, the structure may show the parent alone. Read-outs that look alike come from different tables or passages of the source.

Tests used:
P. falciparum NF54 = assay: Malaria whole cell assay, NF54 strain; assay type: cell-based; conditions: Plasmodium falciparum
Procedure: (§1) Two strains of P. falcipanum are used in this study: The drug sensitive NF54 (an airport strain of unknown origin) and K1 (Thailand, chloroquine and pyrimethamine resistant). The strains are maintained in RPMI-1640 medium with 0.36 mM hypoxanthine supplemented with 25 mM HEPES, 25 mM NaHCO3, neomycin (100 U/ml) and Albumax® (lipid-rich bovine serum albumin) (GIBCO, Grand Island, N.Y.) (5 g/l), together with 5% washed human A+ erythrocytes. All cultures and assays are conducted at 37° C. under an atmosphere of 4% CO2, 3% O2 and 93% N2. Cultures are kept in incubation chambers filled with the gas mixture. Subcultures are diluted to a parasitaemia of 0.1-0.5% and the medium changed daily.
(§2) Antimalarial activity is assessed using an adaptation of the procedures described by Desjardins et al. (Antimicrob. Agents Chemother. 16(6):710-8, 1979), and Matile and Pink (In: Lefkovits, I. and Pernis, B. (Eds.). Immunological Methods. Academic Press, San Diego, pp. 221-234, 1990).
(§3) After use the stocks are kept at −20° C. The compound is further diluted to the appropriate concentration using complete medium without hypoxanthine. […]
(§4) After 48 hours of incubation at 37° C., 0.5 μCi ^3H-hypoxanthine is added to each well. […] The radioactivity is counted using a Betaplate™ liquid scintillation counter (Wallac, Zurich, Switzerland). […] From the sigmoidal inhibition curves IC50 values are calculated. […]

P. falciparum K1 = assay: Malaria whole cell assay, K1 strain; assay type: cell-based; conditions: Plasmodium falciparum
Procedure: as §1, §2, §3, §4

[1] = target: T1, Plasmodium falciparum dUTPase (Plasmodium falciparum, UniProt Q8II92); assay: Malaria enzyme assay: inhibition of Plasmodium falciparum dUTPase; assay type: biochemical
T1 construct: made in house; host or cells: E. coli BL21 (DE3)
T1 sequence (Q8II92 1-173): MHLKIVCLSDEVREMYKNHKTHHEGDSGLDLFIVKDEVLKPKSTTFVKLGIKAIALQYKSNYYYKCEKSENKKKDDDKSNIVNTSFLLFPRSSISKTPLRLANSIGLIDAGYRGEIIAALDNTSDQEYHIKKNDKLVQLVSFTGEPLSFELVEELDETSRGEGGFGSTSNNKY
Procedure: Inhibition of Plasmodium falciparum dUTPase
2′-dUTP, was purchased from Pharmacia. MgCl2, BSA, and the pH indicator cresol red were from Sigma. The buffer N,N-bis(2-hydroxyethyl)glycine (BICINE) was obtained from USB (United States Biochemical), Ohio. All the concentrations of nucleotides were calculated spectrophotometrically (HP-8453, Hewlett Packard) at 280 nm, using the extinction coefficient (ε280 nm=1.75 ml mg^−1cm^−1). Other chemicals used in these experiments were of the highest quality available.
Recombinant P. falciparum dUTPase was purified from E. coli BL21 (DE3) cells transformed with pET-PFdut. Pellets from a liter of culture were resuspended in a solution consisting of buffer A (20 mM MES pH 5.5, 50 mM NaCl, 1 mM DTT) plus the protease inhibitors 1 mM PMSF, 20 μg/ml leupeptin and 1 mM benzamidine. Purification was carried out in a cold room (4° C.). The soluble crude extract was obtained by sonication in a Vibra-cell (Sonics and Materials Inc. Danbury, Conn., USA) and centrifugation at 14000×g. The extract was loaded onto a phosphocellulose column (Whatman) pre-equilibrated with buffer A at a flow rate of 1 ml/min. After washing the column with 100 ml of buffer A, elution was performed using a linear NaCl gradient of 50 to 1000 mM. Peak fractions with a low concentration of contaminating protein, as judged by 15% SDS-PAGE gels, were pooled and then loaded and chromatographed on a Superdex 200 column at a flow rate of 0.5 ml/min. The column was equilibrated with buffer B (50 mM Bicine, 1 mM DTT, 10 mM MgCl2). Peak fractions were pooled and concentrated to about 5 mg/ml by ultrafiltration in a Centripep tube (Amicon) and stored at −80° C.
Nucleotide hydrolysis was monitored by mixing enzyme and substrate with a rapid kinetic accessory (Hi-Tech Scientific) attached to a spectrophotometer (Cary 50) and connected to a computer for data acquisition and storage. Protons, released through the hydrolysis of nucleotides, were neutralised by a pH indicator in a weak buffered medium with similar pKa and monitored spectrophotometrically at the absorbance peak of the basic form of the indicator. Absorbance changes were kept within 0.1 units. The indicator/buffer pair used was cresol red/BICINE ([…], pH 8, 573 nm). The measurements were performed at 25° C., and the solutions were previously degassed. Assays contained 30 nM purified recombinant enzyme, 50 μM dUTP, 5 mM MgCl2 and 2.5 mM DTT, 1.25 mg/ml BSA and 100 mM KCl. Indicator absorbance changes corresponding to complete hydrolysis of nucleotides were recorded in the computer, and the kinetic parameters Vmax and Kmapp (or slope) were calculated by fitting the data to the integrated Michaelis-Menten equation (Segel, 1975). [dUMP]/t=Vmax−Kmap/t ln [dUTP]([dUTP]−[dUMP])
Solutions of potential inhibitors were prepared at 10 mg/ml and tested routinely at concentrations of […]. A wider range of concentrations was further tested when necessary for Ki determination. The different apparent Km values attained were plotted against inhibitor concentration and Ki values were obtained according to the following equation: […]

Plasmodium falciparum = assay: Malaria whole cell assay (cell culture); assay type: cell-based; conditions: read-out: ED50 (the source's name)
Procedure: as §1, §2
After use the stocks are kept at −20° C. The compound is further diluted to the appropriate concentration using complete medium without hypoxanthine.
Assays are performed in sterile 96-well microtiter plates, each well containing 200 μl of parasite culture (0.15% parasitemia, 2.5% hematocrit) with or without serial drug solutions. Seven 2-fold dilutions are used covering a range from 5 μg/ml to 0.078 μg/ml.
After 48 hours of incubation at 37° C., 0.5 μCi ^3H-hypoxanthine is added to each well. Cultures are incubated for a further 24 h before they are harvested onto glass-fiber filters and washed with distilled water. The radioactivity is counted using a Betaplate™ liquid scintillation counter (Wallac, Zurich, Switzerland). […] From the sigmoidal inhibition curves IC50 values are calculated.
K1 strain is used. The compounds are tested at 7 concentrations (5000 to 78 ng/ml). Artemisinin and chloroquine are included as reference drugs.

[2] = Plasmodium falciparum enzyme, read-out: Ki

Row | Structure (SMILES) | melting point [°C] | Ki [1, 2] [µM] | EC50 (Plasmodium falciparum) [µM] | Ki [1] [µM] | also measured
1 | COc1ccc(C(NC[C@H]2O[C@@H](n3ccc(=O)[nH]c3=O)CC2O)(c2ccccc2)c2ccccc2)cc1 (stereo partly shown) (as salt: salt) [Example 23, 5′-paraMethoxytritylamino-2′,5′-dideoxyuridine] | 140 to 142 | – | – | – | –
2 | O=c1ccn(C2CC(O)C(CNC(c3ccccc3)(c3ccccc3)c3ccncc3)O2)c(=O)[nH]1 (stereo not shown) [Example 8, 5′-(4-pyridydiphenylmethyl)amino-2′,5′-dideoxyuridine] | 131 to 133 | – | – | – | –
3 | COc1ccc(C(OC[C@H]2O[C@@H](n3ccc(=O)[nH]c3=O)CC2O)(c2ccccc2)c2ccccc2)cc1 (stereo partly shown) [Example 20, 5′-O-paramethoxytrityl-2′-deoxyuridine] | 96 to 97 | – | – | – | –
4 | N#Cc1ccc(C(NC[C@H]2O[C@@H](n3ccc(=O)[nH]c3=O)C[C@@H]2O)(c2ccccc2)c2ccccc2)cc1 [Example 22, 5′-[(4-cyanotrityl)amino]-2′,5′-dideoxyuridine] | 160 to 163 | – | – | – | –
5 | O=c1ccn([C@H]2C[C@H](O)[C@@H](CNC(c3ccccc3)(c3ccccc3)c3ccccc3Cl)O2)c(=O)[nH]1 [Example 24, 5′-[(2-chlorotrityl)amino]2′,5′-dideoxyuridine] | 129 to 131 | – | – | – | –
6 | O=c1ccn(C2CC(O)C(CNC3(c4ccccc4)c4ccccc4Oc4ccccc43)O2)c(=O)[nH]1 (stereo not shown) [Example 26, 5′-Pixylamino-2′,5′-dideoxyuridine] | 117 to 119 | – | – | – | –
7 | C[C@@H]1CC[C@H]2[C@@H](C)C(=O)O[C@@H]3O[C@@]4(C)CC[C@@H]1[C@]32OO4 [artemisinin] | – | – | – | – | IC50 (P. falciparum NF54; NF54 strain, read-out: IC50): 1.9 ng/mL (≈ 6.73 nM); IC50 (P. falciparum K1; K1 strain, read-out: IC50): 0.8 ng/mL (≈ 2.83 nM)
8 | CCN(CC)CCCC(C)Nc1ccnc2cc(Cl)ccc12 (stereo not shown) [chloroquine] | – | – | – | – | IC50 (P. falciparum NF54; NF54): 2.9 ng/mL (≈ 9.07 nM); IC50 (P. falciparum K1; K1): 48 ng/mL (≈ 150 nM)
9 | O=c1ccn([C@H]2C[C@H](O)[C@@H](CNC(c3ccccc3)(c3ccccc3)c3ccccc3)O2)c(=O)[nH]1 [drawing 55 Ph3CNH, 5′-Tritylamino-2′,5′-dideoxyuridine] | – | 0.2 | 4.5 | – | –
10 | O=c1ccn([C@H]2C[C@H](O)[C@@H](COC(c3ccccc3)(c3ccccc3)c3ccccc3)O2)c(=O)[nH]1 [drawing 55 Ph3CO, 5′-O-trityl-2′-deoxyuridine] | – | 1.8 | 6 | – | –
11 | CC(C)(C)[Si](OC[C@H]1O[C@@H](n2ccc(=O)[nH]c2=O)C[C@@H]1O)(c1ccccc1)c1ccccc1 [drawing 55 TBDPSO, 5′-O-tert-Butyldiphenylsilyl-2′-deoxyuridine] | – | 4.2 | 6.6 | – | –
12 | O=c1ccn([C@H]2C[C@H](O)[C@@H](CO[Si](c3ccccc3)(c3ccccc3)c3ccccc3)O2)c(=O)[nH]1 [drawing 55 TPSO, 5′-O-Triphenylsilyl-2′-deoxyuridine] | – | 2.8 | 1.1 | – | –
13 | CC(C)(C)[Si](C)(C)OC1CC(n2ccc(=O)[nH]c2=O)OC1COC(c1ccccc1)(c1ccccc1)c1ccccc1 (stereo not shown) [drawing 56 Ph3CO, 1-[4-(tert-Butyl-dimethyl-silanyloxy)-5-trityloxymethyl-tetrahydro-furan-2-yl]-1H pyrimidine-2,4-dione] | – | – | 1 | 515 | –
14 | CC(C)(C)[Si](C)(C)OC1C[C@H](n2ccc(=O)[nH]c2=O)O[C@@H]1CNC(c1ccccc1)(c1ccccc1)c1ccccc1 (stereo partly shown) [drawing 56 Ph3NH, 3′-O-tertbutyldimethylsilyl-5′-Tritylamino-2′,5-dideoxyuridine] | – | – | 1.8 | 313 | –
15 | CC(C)(C)[Si](OCC1C=CC(n2ccc(=O)[nH]c2=O)O1)(c1ccccc1)c1ccccc1 (stereo not shown) [drawing 57 TBDPSO, 5′-O-tert-butyldiphenylsilyl-2′,3′-dideoxydidehydrouridine] | – | 1.2 | 3 | – | –
16 | O=c1ccn([C@H]2C=C[C@@H](CO[Si](c3ccccc3)(c3ccccc3)c3ccccc3)O2)c(=O)[nH]1 [drawing 57 TPSO, 5′-Triphenylsilyloxy-2′,3′-dideoxydidehydrouridine] | – | – | 1 | 1.3 | –
17 | O=c1ccn([C@H]2C[C@H](F)[C@@H](COC(c3ccccc3)(c3ccccc3)c3ccccc3)O2)c(=O)[nH]1 [drawing 58 Ph3CO, 3′-Fluoro-5′-O-trityl-2′,3′-dideoxyuridine] | – | 5 | 2 | – | –
18 | O=c1ccn([C@H]2C[C@H](F)[C@@H](CNC(c3ccccc3)(c3ccccc3)c3ccccc3)O2)c(=O)[nH]1 [drawing 58 Ph3NH, 3′-Fluoro-5′-tritylamino-2′,3′,5′-trideoxyuridine] | – | – | 5.3 | 12 | –
19 | CC(C)(C)[Si](OC[C@H]1O[C@@H](n2ccc(=O)[nH]c2=O)CC1F)(c1ccccc1)c1ccccc1 (stereo partly shown) [drawing 58 TBDPSO, 3′-Fluoro-5′-O-tert-Butyidiphenylsilyl-2′,3′-dideoxyuridine] | – | – | 8.8 | 89 | –
20 | O=c1ccn([C@H]2C[C@H](F)[C@@H](CO[Si](c3ccccc3)(c3ccccc3)c3ccccc3)O2)c(=O)[nH]1 [drawing 58 TPSO, 3′-Fluoro-5′-O-triphenylsilyl-2′,3′-dideoxyuridine] | – | – | 1 | 975 | –
